Experimental data reported in US20110165226A1, “INFLUENZA CAP-LEADER SEQUENCE” (priority 2008, published 2011).

System: Influenza virus strain A/Puerto Rico/8/34 (H1/N1)
Assay type: biochemical

| Substance | transcripts containing capped leaders originating from the mutant [transcripts] |
| --- | --- |
| C9A10G11C12: leader length construct, CAGC within oligo U stretch, first base pairing A at position 10 (DNA CGACTCACTATAGTATTTTTCAGCTTTTTTTTTTCAAAATATTCCAAT; chemistry not fully specified; the letters are possibly those of the target site) | 9 |
| C10A11G12C13: leader length construct, CAGC within oligo U stretch, first base pairing A at position 11 (DNA CGACTCACTATAGTATTTTTTCAGCTTTTTTTTTCAAAATATTCCAAT; chemistry not fully specified; the letters are possibly those of the target site) | 5 |
